Data reported in US12364702B2, “Highly active sting protein agonist compound” (ADLAI NORTYE BIOPHARMA CO., LTD., priority 2018, dated 2025).
Like-named read-outs stand apart in the source and are kept apart here.

What was measured:
Type in all cases: cell-based
[1] = biological target: STING (Homo sapiens, UniProt Q86WV6); test: IFN-β secretion from THP1 by STING activation (hIFNβ ELISA)
Protocol: In this assay, activation of STING by compounds was evaluated by detecting their ability to stimulate the secretion of IFN-β (interferon-beta) from THP1. THP1 was purchased from National Collection of Authenticated Cell Cultures (Cat #TCHu 57). The top dose of compounds was setted according to their solubility. First, Compounds were 3 times diluted with medium, 8-dose points in total. The final DMSO concentration was 0.2%. THP1 during the logarithmic phase was resuspended to 2×10^6 cells/ml in assay medium. The THP1-cell suspension was dispensed into a 96-well U bottom plate containing 50 ul of compound diluted in medium. After 24 h incubation at 37° C., 5% CO2, the supernatant was collected. The concentration of IFN-β in the supernatant was measured using a human IFNβ ELISA KIT (R&D, DY814-05). The data was fitted with GraphPad Prism or XLfit to calculate EC50 values.

[2] = biological target: T1, STING WT variant (Homo sapiens, UniProt Q86WV6); test: SEAP reporter assay in HEK-Blue ISG KO-STING cells transfected with STING WT variant (Method 1); conditions: 24 h, SEAP signal vs 0.5% DMSO
T1 construct: host or cells: HEK-Blue ISG KO-STING cells (Invivogen, hkb-kostg)
Description: (§1) Activation of STING can be determined using a SEAP reporter assay in HEK-Blue™ ISG KO-STING cells (Invivogen, cat #hkb-kostg) transfected with plasmids expressing STING variants (WT & HAQ) (referred to WO2017/175147A1). STING variants (WT & HAQ) vector were constructed based on STING-232H vector (Origene, RC208418). GFP vector (VT2069) was bought from Youbio. The detailed protocol as follows: HEK-Blue™ ISG KO-STING cells were harvest and seeding into 96 well plate, the final cell number was 0.8×10^5 cells/well. Transfections were prepared using Lipofectamine 2000 (Invitrogen, Cat #11668-027) following the manufacturer's instructions (Lipo2000/DNA=1/10), 20 ul of transfection suspension containing 1 ng STING vector was added to cell culture plate and incubated at 37° C., 5% CO2 for 24 hours. After 24 hours' incubation, compounds were added at proper concentration, and the final DMSO concentration was 0.5%. After 24 h incubation, the supernatant was collected to detect SEAP signal using Great EscAPe SEAP chemiluminescence KIT (Clontech, cat #631738) and cells were collected to detect cell viability using CellTiter-Glo Luminescent Cell Viability Assay (Promega, cat #G7573) following the manufacturer's instructions. The data were described by the ratio of the stimulating signal of compounds to 0.5% DMSO.

[3] = biological target: T2, STING HAQ variant (Homo sapiens, UniProt Q86WV6, G230A/R293Q/R71H); test: SEAP reporter assay in HEK-Blue ISG KO-STING cells transfected with STING HAQ variant (Method 1); conditions: 24 h, SEAP signal vs 0.5% DMSO
T2 construct: host or cells: HEK-Blue ISG KO-STING cells (Invivogen, hkb-kostg)
T2 sequence (Q86WV6 whole entry R71H/G230A/R293Q): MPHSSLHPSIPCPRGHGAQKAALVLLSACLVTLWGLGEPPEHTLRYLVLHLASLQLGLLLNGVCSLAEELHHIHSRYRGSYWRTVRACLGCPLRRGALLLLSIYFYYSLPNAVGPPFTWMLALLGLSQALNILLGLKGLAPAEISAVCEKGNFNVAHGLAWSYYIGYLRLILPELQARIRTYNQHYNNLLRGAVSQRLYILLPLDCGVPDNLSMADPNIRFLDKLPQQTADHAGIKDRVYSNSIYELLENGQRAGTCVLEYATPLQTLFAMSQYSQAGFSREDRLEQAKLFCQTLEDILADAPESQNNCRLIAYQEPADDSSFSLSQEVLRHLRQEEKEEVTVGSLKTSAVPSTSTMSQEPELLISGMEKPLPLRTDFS
Description: as §1

[4] = THP1 cells; 24 h incubation; IFN-β in supernatant; top dose set according to solubility
[5] = THP1 cells; 24 h incubation; IFN-β in supernatant; top dose set according to solubility; read-out: hIFNβ ELISA (EC50)
[6] = 1 ng STING vector, compound 2.5 uM
[7] = 1 ng STING vector, compound 5 uM

Chain of STING (Q86WV6 whole entry): as the sequence (Q86WV6 whole entry R71H/G230A/R293Q) above, with H71R, A230G, Q293R counted along it

Row | SMILES | hIFNβ ELISA (EC50, μM) [1, 4] | EC50 [1, 5] [µM] | Fold change related to DMSO control WT [2, 6] | Fold change related to DMSO control HAQ [3, 7] | other results
1 | CCn1nc(C)cc1C(=O)Nc1nc2cc(C(N)=O)cc(OCCCOC)c2n1CCC[C@@H]1COc2cc(C(N)=O)cc3nc(NC(=O)c4cc(C)nn4CC)n1c23 [Example 2, (R)-3-(3-(5-Carbamoyl-2-(1-ethyl-3-methyl-1H-pyrazole-5-carboxamido)-7-(3-methoxypropoxy)-1H-benzo[d]imidazol-1-yl)propyl)-2-(1-ethyl-3-methyl-1H-pyrazole-5-carboxamido)-3,4-dihydro-5-oxa-1,2a-diazaacenaphthylene-7-carboxamide] | inactive |  |  |  | Fold change related to DMSO control WT ([2]; compound 15.65 uM): 1.99; Fold change related to DMSO control HAQ ([3]; compound 15.65 uM): 2.52
2 | CCn1nc(C)cc1C(=O)Nc1nc2cc(C(N)=O)cc(OC)c2n1CCC[C@@H]1COc2cc(C(N)=O)cc3nc(NC(=O)c4cc(C)nn4CC)n1c23 [Example 4, (R)-3-(3-(5-Carbamoyl-2-(1-ethyl-3-methyl-1H-pyrazole-5-carboxamido)-7-methoxy-1H-benzo[d]imidazol-1-yl)propyl)-2-(1-ethyl-3-methyl-1H-pyrazole-5-carboxamido)-3,4-dihydro-5-oxa-1,2a-diazaacenaphthylene-7-carboxamide] | inactive |  |  |  | Fold change related to DMSO control WT ([2]; compound 26.8 uM): 2.22; Fold change related to DMSO control HAQ ([3]; compound 26.8 uM): 10.21
3 | CCn1nc(C)cc1C(=O)Nc1nc2cc(C(N)=O)cc(OC)c2n1CCC[C@H]1COc2cc(C(N)=O)cc3nc(NC(=O)c4cc(C)nn4CC)n1c23 [Example 5, (S)-3-(3-(5-carbamoyl-2-(1-ethyl-3-methyl-1H-pyrazole-5-carboxamido)-7-methoxy-1H-benzo[d]imidazol-1-yl)propyl)-2-(1-ethyl-3-methyl-1H-pyrazole-5-carboxamido)-3,4-dihydro-5-oxa-1,2a-diazaacenaphthylene-7-carboxamide] |  | 3.7 |  |  | Fold change related to DMSO control WT ([2]; compound 22.1 uM): 1.41; Fold change related to DMSO control HAQ ([3]; compound 22.1 uM): 22.85
4 | CCn1nc(C)cc1C(=O)Nc1nc2cc(C(N)=O)cc(OCCCO)c2n1CCC[C@H]1COc2cc(C(N)=O)cc3nc(NC(=O)c4cc(C)nn4CC)n1c23 [Example 6, (S)-3-(3-(5-carbamoyl-2-(1-ethyl-3-methyl-1H-pyrazole-5-carboxamido)-7-(3-hydroxypropoxy)-1H-benzo[d]imidazol-1-yl)propyl)-2-(1-ethyl-3-methyl-1H-pyrazole-5-carboxamido)-3,4-dihydro-5-oxa-1,2a-diazaacenaphthylene-7-carboxamide] |  | 4.8 |  |  | Fold change related to DMSO control WT ([2]; compound 57.9 uM): 1.71; Fold change related to DMSO control HAQ ([3]; compound 57.9 uM): 32.88
5 | CCn1nc(C)cc1C(=O)Nc1nc2cc(C(N)=O)cc(OCCCOC)c2n1CC[C@H]1COc2cc(C(N)=O)cc3nc(NC(=O)c4cc(C)nn4CC)n1c23 [Example 7, (S)-3-(2-(5-carbamoyl-2-(1-ethyl-3-methyl-1H-pyrazole-5-carboxamido)-7-(3-methoxypropoxy)-1H-benzo[d]imidazol-1-yl)ethyl)-2-(1-ethyl-3-methyl-1H-pyrazole-5-carboxamido)-3,4-dihydro-5-oxa-1,2a-diazaacenaphthylene-7-carboxamide] | inactive |  |  |  | Fold change related to DMSO control WT ([2]; compound 80.2 uM): 1.96; Fold change related to DMSO control HAQ ([3]; compound 80.2 uM): 20.29
6 | CCn1nc(C)cc1C(=O)Nc1nc2cc(C(N)=O)cc(OCCCOC)c2n1CCCC[C@H]1COc2cc(C(N)=O)cc3nc(NC(=O)c4cc(C)nn4CC)n1c23 [Example 8, (S)-3-(4-(5-carbamoyl-2-(1-ethyl-3-methyl-1H-pyrazole-5-carboxamido)-7-(3-methoxypropoxy)-1H-benzo[d]imidazol-1-yl)butyl)-2-(1-ethyl-3-methyl-1H-pyrazole-5-carboxamido)-3,4-dihydro-5-oxa-1,2a-diazaacenaphthylene-7-carboxamide] | inactive |  |  |  | Fold change related to DMSO control WT ([2]; compound 4.7 uM): 2.08; Fold change related to DMSO control HAQ ([3]; compound 4.7 uM): 8.09
7 | CCn1nc(C)cc1C(=O)Nc1nc2cc(C(N)=O)cc(OCCCOC)c2n1CCC[C@H]1COc2cc(C(N)=O)cc3nc(NC(=O)c4c(Br)c(C)nn4CC)n1c23 [Example 9, (S)-2-(4-bromo-1-ethyl-3-methyl-1H-pyrazole-5-carboxamido)-3-(3-(5-carbamoyl-2-(1-ethyl-3-methyl-1H-pyrazole-5-carboxamido)-7-(3-methoxypropoxy)-1H-benzo[d]imidazol-1-yl)propyl)-3,4-dihydro-5-oxa-1,2a-diazaacenaphthylene-7-carboxamide] |  | 2.6 | 2.27 | 14.14 | 
8 | COCCCOc1cc(C(N)=O)cc2nc(NC(=O)c3cc(C)nn3CCF)n(CCC[C@H]3COc4cc(C(N)=O)cc5nc(NC(=O)c6cc(C)nn6CCF)n3c45)c12 [Example 10, (S)-3-(3-(5-carbamoyl-2-(1-(2-fluoroethyl)-3-methyl-1H-pyrazole-5-carboxamido)-7-(3-methoxypropoxy)-1H-benzo[d]imidazol-1-yl)propyl)-2-(1-(2-fluoroethyl)-3-methyl-1H-pyrazole-5-carboxamido)-3,4-dihydro-5-oxa-1,2a-diazaacenaphthylene-7-carboxamide] | inactive |  | 1.98 | 16.63 | 
9 | CCn1nc(C)cc1C(=O)Nc1nc2cc(C(N)=O)cc(OCCCOC)c2n1CCC[C@H]1COc2cc(C#N)cc3nc(NC(=O)c4cc(C)nn4CC)n1c23 [Example 11, (S)-1-(3-(7-cyano-2-(1-ethyl-3-methyl-1H-pyrazole-5-carboxamido)-3,4-dihydro-5-oxa-1,2a-diazaacenaphthylen-3-yl)propyl)-2-(1-ethyl-3-methyl-1H-pyrazole-5-carboxamido)-7-(3-methoxypropoxy)-1H-benzo[d]imidazole-5-carboxamide] |  |  | 1.83 | 27.74 | 
10 | CCn1nc(C)cc1C(=O)Nc1nc2cc(C(N)=O)cc3c2n1[C@@H](CCCn1c(NC(=O)c2cc(C)nn2CCF)nc2cc(C(N)=O)cc(OCCCOC)c21)CO3 [Example 12, (S)-3-(3-(5-carbamoyl-2-(1-(2-fluoroethyl)-3-methyl-1H-pyrazole-5-carboxamido)-7-(3-methoxypropoxy)-1H-benzo[d]imidazol-1-yl)propyl)-2-(1-ethyl-3-methyl-1H-pyrazole-5-carboxamido)-3,4-dihydro-5-oxa-1,2a-diazaacenaphthylene-7-carboxamide] |  | > 9.1 | 1.89 | 26.28 | 
11 | CCn1nc(C)c(Br)c1C(=O)Nc1nc2cc(C(N)=O)cc3c2n1[C@@H](CCCn1c(NC(=O)c2cc(C)nn2CCF)nc2cc(C(N)=O)cc(OCCCOC)c21)CO3 [Example 13, (S)-2-(4-bromo-1-ethyl-3-methyl-1H-pyrazole-5-carboxamido)-3-(3-(5-carbamoyl-2-(1-(2-fluoroethyl)-3-methyl-1H-pyrazole-5-carboxamido)-7-(3-methoxypropoxy)-1H-benzo[d]imidazol-1-yl)propyl)-3,4-dihydro-5-oxa-1,2a-diazaacenaphthylene-7-carboxamide] |  | > 3 | 1.79 | 26.64 | 
12 | CCn1nc(C)cc1C(=O)Nc1nc2cc(C(N)=O)cc(OCCCN)c2n1CCC[C@H]1COc2cc(C(N)=O)cc3nc(NC(=O)c4cc(C)nn4CC)n1c23.Cl [Example 14, (S)-3-(3-(7-(3-aminopropoxy)-5-carbamoyl-2-(1-ethyl-3-methyl-1H-pyrazole-5-carboxamido)-1H-benzo[d]imidazol-1-yl)propyl)-2-(1-ethyl-3-methyl-1H-pyrazole-5-carboxamido)-3,4-dihydro-5-oxa-1,2a-diazaacenaphthylene-7-carboxamide] |  |  | 2.17 | 16.68 | EC50 ([1]; read-out: hIFNβ ELISA (EC50); THP1 cells; 24 h incubation; IFN-β in supernatant; top dose set according to solubility): > 13.7 µM
